Reference: publication doi:10.1101/2022.02.27.481963v1 (biorxiv, 2022)
Blank lines part the entries; values can stand above or below the molecule they belong to.

Key:
[1] = system: fused MjGMPS; assay: continuous absorbance at […] nm, GMP formation; type: biochemical, Methanocaldococcus jannaschii; details: ATPPase site, pH 7.0, 70 °C
[2] = substrate: O=c1[nH]c(=O)c2ncn([C@@H]3O[C@H](COP(=O)(O)O)[C@@H](O)[C@H]3O)c2[nH]1; assay: purified protein; type: biochemical, Methanocaldococcus jannaschii; details: pH 7.0, 70 °C

Molecule: Nc1ncnc2c1ncn2[C@@H]1O[C@H](COP(=O)(O)OP(=O)(O)OP(=O)(O)O)[C@@H](O)[C@H]1O [ATP.Mg^2+]
Km ([1]; Mg2+ complex, saturating XMP): 503 ± 6 µM

Km ([1]; saturating ATP.Mg2+): 44 ± 1 µM
Molecule: O=c1[nH]c(=O)c2ncn([C@@H]3O[C@H](COP(=O)(O)O)[C@@H](O)[C@H]3O)c2[nH]1 [XMP]

B1: MjATPPase (Methanocaldococcus jannaschii DSM 2661) (protein)
chain: MFDPKKFIDEAVEEIKQQISDRKAIIALSGGVDSSVAAVLTHKAIGDKLTAVFVDTGLMRKGEREEVEKTFRDKLGLNLIVVDAKDRFLNALKGVTDPEEKRKIIGKLFIDVFEEIAEDIKAEVLVQGTIAPDWIETQGKIKSHHNVALPHGMVLEVVEPLRELYKDEVRLLAKELGLPDSIVYRQPFPGPGLAVRVLGEVTEEKLNICREANAIVEEEVKKANLDKDLWQYFAVVLDCKATGVKGDEREYNWIVALRMVKSLDAMTAHVPEIPFDLLKRISKRITSEIPNVARVVFDITDKPPATIEFE
Km ([2]; NH4Cl dependent, saturating ATP.Mg2+ and NH4Cl): 30 ± 2 µM

B2: MjGMPS (MjATPPase + MjGATase), ATPPase site (Methanocaldococcus jannaschii DSM 2661) (protein)
chain: B1 chain
Km ([2]; Gln dependent, saturating ATP.Mg2+ and Gln): 61 ± 3 µM
